{"source": "patent US20240246931A1", "about": "“COMPOUNDS AS PD1/PD-L1 INHIBITORS AND METHODS THEREOF” (JUBILANT PRODEL LLC, priority 2021, published 2024)", "data": [{"biological_target": "T1, PD-1/PD-L1 interaction (Homo sapiens, UniProt Q9NZQ7)", "T1 construct": "purchased CisBio 63ADK000CPAPEG", "T1 sequence (Q9NZQ7 19-238 limits assumed)": "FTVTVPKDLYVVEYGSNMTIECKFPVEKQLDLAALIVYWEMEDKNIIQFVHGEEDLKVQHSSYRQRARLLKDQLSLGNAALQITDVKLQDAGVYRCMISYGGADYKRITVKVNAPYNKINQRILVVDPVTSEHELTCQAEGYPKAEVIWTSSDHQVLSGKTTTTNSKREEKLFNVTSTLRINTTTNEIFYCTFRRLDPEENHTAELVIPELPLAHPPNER", "assay": "PD-1/PD-L1 HTRF binding assay (CisBio kit)", "details": "HTRF PD1/PD-L1 inhibition assay", "experimental": "PD-L1 Enzyme Assay: Homogenous Time-Resolved Fluorescence (HTRF) Binding Assay\nAll binding studies were performed using PD-1/PD-L1 Binding Assay Kit from CisBio (Catalog #63ADK000CPAPEG), according to the manufacturer's protocol. The interaction between Tag1-PD-1 and […] was detected by anti-Tag1-Eu^3+ (HTRF donor) and anti-Tag2-XL665 (HTRF acceptor). When the donor and acceptor antibodies were brought to close proximity due to PD-1 and PD-L1 binding, excitation of the donor antibody triggered fluorescent resonance energy transfer (FRET) towards the acceptor antibody, which in turn emitted specifically at 665 nm. This specific signal is positively proportional to PD-1/PD-L1 interaction. The compounds blocking PD-1/PD-L1 interaction will cause a reduction in HTRF signal. The necessary reagents were mixed in the following order: 2 μL compounds (or diluents buffer), 4 μL PD-L1 protein, 4 μL PD-1 protein. After an incubation of 15 minutes, 5 μL of anti-Tag1-Eu^3+ and 5 μL of anti-Tag2-XL665 were added. The plate was sealed and incubated at room temperature for 1 h. The fluorescence emission was read at two different wavelengths (665 nm and 620 nm) on a BMG PheraStar® multi-plate reader.\nResults were calculated from the 665 nm and 620 nm fluorescence signal and expressed in HTRF ratio=(665 nm/620 nm)×10^4.\nCompounds having IC50<100 nM are designated as “A”; 100-500 nM are designated as “B”; and >500 nM are designated as “C” respectively.", "units": {"IC50": "nM"}, "values": [{"smiles": "Cc1c(COc2cc(OCc3cncc(C#N)c3)c(CN3CCCCC3(CO)CO)c3c2CCC3)cccc1-c1ccccc1", "note": "[Example 22, 5-(((4-((2,2-bis(hydroxymethyl)piperidin-1-yl)methyl)-7-((2-methyl-[1,1′-biphenyl]-3-yl)methoxy)-2,3-dihydro-1H-inden-5-yl)oxy)methyl)nicotinonitrile 2,2,2-trifluoroacetate]", "IC50": "< 100"}, {"smiles": "Cc1c(COc2cc(OCCCCF)c(CN3CC[C@H]3CO)c3c2CCC3)cccc1-c1ccccc1", "note": "[Example 33, (S)-(1-((5-(4-fluorobutoxy)-7-((2-methyl-[1,1′-biphenyl]-3-yl)methoxy)-2,3-dihydro-1H-inden-4-yl)methyl)azetidin-2-yl)methanol]", "IC50": "100 to 500"}, {"smiles": "N#Cc1cccc(COc2cc(OCc3cccc(-c4ccccc4)c3C#N)c3c(c2CN2CCCC4CC42CO)CCC3)c1", "note": "(stereo not drawn) [Example 36, 3-(((6-((3-cyanobenzyl)oxy)-7-((1-(hydroxymethyl)-2-azabicyclo[4.1.0]heptan-2-yl)methyl)-2,3-dihydro-1H-inden-4-yl)oxy)methyl)-[1,1′-biphenyl]-2-carbonitrile]", "IC50": "100 to 500"}, {"smiles": "Cc1c(COc2cc(OCc3cnn(C)c3)c(CN3CCCC[C@H]3CO)c3c2CCC3)cccc1-c1ccccc1", "note": "[Example 39, (S)-(1-((5-((1-methyl-1H-pyrazol-4-yl)methoxy)-7-((2-methyl-[1,1′-biphenyl]-3-yl)methoxy)-2,3-dihydro-1H-inden-4-yl)methyl)piperidin-2-yl)methanol]", "IC50": "100 to 500"}, {"smiles": "Cc1c(COc2cc(OCc3cscn3)c(CN3CCC3CO)c3c2CCC3)cccc1-c1ccccc1", "note": "(stereo not drawn) [Example 40, (1-((7-((2-methyl-[1,1′-biphenyl]-3-yl)methoxy)-5-(thiazol-4-ylmethoxy)-2,3-dihydro-1H-inden-4-yl)methyl)azetidin-2-yl)methanol]", "IC50": "100 to 500"}, {"smiles": "Cc1c(COc2cc(OCc3cn(C)cn3)c(CN3CCC3CO)c3c2CCC3)cccc1-c1ccccc1", "note": "(stereo not drawn) [Example 41, (1-((5-((1-methyl-1H-imidazol-4-yl)methoxy)-7-((2-methyl-[1,1′-biphenyl]-3-yl)methoxy)-2,3-dihydro-1H-inden-4-yl)methyl)azetidin-2-yl)methanol]", "IC50": "100 to 500"}, {"smiles": "Cc1c(COc2cc(OCc3cncnc3)c(CN3CCC3CO)c3c2CCC3)cccc1-c1ccccc1", "note": "(stereo not drawn) [Example 42, (1-((7-((2-methyl-[1,1′-biphenyl]-3-yl)methoxy)-5-(pyrimidin-5-ylmethoxy)-2,3-dihydro-1H-inden-4-yl)methyl)azetidin-2-yl)methanol]", "IC50": "< 100"}, {"smiles": "Cc1c(COc2cc(OCc3cocn3)c(CN3CCC3CO)c3c2CCC3)cccc1-c1ccccc1", "note": "(stereo not drawn) [Example 43, (1-((7-((2-methyl-[1,1′-biphenyl]-3-yl)methoxy)-5-(oxazol-4-ylmethoxy)-2,3-dihydro-1H-inden-4-yl)methyl)azetidin-2-yl)methanol]", "IC50": "100 to 500"}, {"smiles": "Cc1c(COc2cc(OCc3cc(C#N)c[n+]([O-])c3)c(CN3CCCC[C@H]3CO)c3c2CCC3)cccc1-c1ccccc1", "note": "[Example 45, (S)-3-cyano-5-(((4-((2-(hydroxymethyl)piperidin-1-yl)methyl)-7-((2-methyl-[1,1′-biphenyl]-3-yl)methoxy)-2,3-dihydro-1H-inden-5-yl)oxy)methyl)pyridine 1-oxide]", "IC50": "< 100"}, {"smiles": "Cc1c(COc2cc(OCc3cncc(C#N)c3)c(CN3CCCC[C@H]3CO)c3c2CCC3)cccc1-c1ccc(F)cc1", "note": "[Example 46, (S)-5-(((7-((4′-fluoro-2-methyl-[1,1′-biphenyl]-3-yl)methoxy)-4-((2-(hydroxymethyl)piperidin-1-yl)methyl)-2,3-dihydro-1H-inden-5-yl)oxy)methyl)nicotinonitrile]", "IC50": "100 to 500"}, {"smiles": "Cc1c(COc2cc(OCc3cncc(C#N)c3)c(CN3CC4(CC4)C[C@H]3CO)c3c2CCC3)cccc1-c1ccc(F)cc1", "note": "[Example 47, (S)-5-(((7-((4′-fluoro-2-methyl-[1,1′-biphenyl]-3-yl)methoxy)-4-((6-(hydroxymethyl)-5-azaspiro[2.4]heptan-5-yl)methyl)-2,3-dihydro-1H-inden-5-yl)oxy)methyl)nicotinonitrile]", "IC50": "100 to 500"}, {"smiles": "Cc1c(COc2cc(OCc3cncc(C#N)c3)c(CN3CCC[C@H]3CO)c3c2CCC3)cccc1-c1ccc(F)cc1", "note": "[Example 48, (S)-5-(((7-((4′-fluoro-2-methyl-[1,1′-biphenyl]-3-yl)methoxy)-4-((2-(hydroxymethyl)pyrrolidin-1-yl)methyl)-2,3-dihydro-1H-inden-5-yl)oxy)methyl)nicotinonitrile]", "IC50": "100 to 500"}, {"smiles": "Cc1c(COc2cc(OCc3cncc(C#N)c3)c(C(=O)NC3CCN(C)CC3)c3c2CCC3)cccc1-c1ccccc1", "note": "[Example 49, 5-((5-cyanopyridin-3-yl)methoxy)-7-((2-methyl-[1,1′-biphenyl]-3-yl)methoxy)-N-(1-methylpiperidin-4-yl)-2,3-dihydro-1H-indene-4-carboxamide]", "IC50": "< 100"}, {"smiles": "Cc1c(COc2cc(OCc3cncc(C#N)c3)c(C(=O)N3CCC[C@H]3CO)c3c2CCC3)cccc1-c1ccccc1", "note": "[Example 50, (S)-5-(((4-(2-(hydroxymethyl)pyrrolidine-1-carbonyl)-7-((2-methyl-[1,1′-biphenyl]-3-yl)methoxy)-2,3-dihydro-1H-inden-5-yl)oxy)methyl)nicotinonitrile]", "IC50": "100 to 500"}, {"smiles": "Cc1c(COc2cc(OCc3cncc(C#N)c3)c(C(=O)N3CC[C@H](CO)C3)c3c2CCC3)cccc1-c1ccccc1", "note": "[Example 51, (S)-5-(((4-(3-(hydroxymethyl)pyrrolidine-1-carbonyl)-7-((2-methyl-[1,1′-biphenyl]-3-yl)methoxy)-2,3-dihydro-1H-inden-5-yl)oxy)methyl)nicotinonitrile]", "IC50": "100 to 500"}, {"smiles": "CC(=O)NCC1CCCN1Cc1c(OCc2cncc(C#N)c2)cc(OCc2cccc(-c3ccccc3)c2C)c2c1CCC2", "note": "(stereo not drawn) [Example 52, N-((1-((5-((5-cyanopyridin-3-yl)methoxy)-7-((2-methyl-[1,1′-biphenyl]-3-yl)methoxy)-2,3-dihydro-1H-inden-4-yl)methyl)pyrrolidin-2-yl)methyl)acetamide]", "IC50": "< 100"}, {"smiles": "Cc1c(COc2cc(OCc3cncc(C#N)c3)c(CN3CCCC3CN)c3c2CCC3)cccc1-c1ccccc1", "note": "(stereo not drawn) [Example 53, 5-(((4-((2-(aminomethyl)pyrrolidin-1-yl)methyl)-7-((2-methyl-[1,1′-biphenyl]-3-yl)methoxy)-2,3-dihydro-1H-inden-5-yl)oxy)methyl)nicotinonitrile]", "IC50": "< 100"}, {"smiles": "Cc1c(Br)cccc1COc1cc(OCc2cncc(C#N)c2)c(CN2CCC2CO)c2c1CCC2", "note": "(stereo not drawn) [Example 54, 5-(((7-((3-bromo-2-methylbenzyl)oxy)-4-((2-(hydroxymethyl)azetidin-1-yl)methyl)-2,3-dihydro-1H-inden-5-yl)oxy)methyl)nicotinonitrile]", "IC50": "> 500"}, {"smiles": "Cc1c(COc2cc(OCc3cncc(C#N)c3)c(CN3CCC3CO)c3c2CCC3)cccc1-c1ccc(O)cc1", "note": "(stereo not drawn) [Example 55, 5-(((7-((4′-hydroxy-2-methyl-[1,1′-biphenyl]-3-yl)methoxy)-4-((2-(hydroxymethyl)azetidin-1-yl)methyl)-2,3-dihydro-1H-inden-5-yl)oxy)methyl)nicotinonitrile]", "IC50": "100 to 500"}, {"smiles": "Cc1ccc(F)c(-c2cccc(COc3cc(OCc4cncc(C#N)c4)c(CN4CCC4CO)c4c3CCC4)c2C)c1", "note": "(stereo not drawn) [Example 56, 5-(((7-((2′-fluoro-2,5′-dimethyl-[1,1′-biphenyl]-3-yl)methoxy)-4-((2-(hydroxymethyl)azetidin-1-yl)methyl)-2,3-dihydro-1H-inden-5-yl)oxy)methyl)nicotinonitrile]", "IC50": "100 to 500"}, {"smiles": "Cc1c(COc2cc(OCc3cncc(C#N)c3)c(CN3CCC3CO)c3c2CCC3)cccc1-c1cn[nH]c1", "note": "(stereo not drawn) [Example 57, 5-(((4-((2-(hydroxymethyl)azetidin-1-yl)methyl)-7-((2-methyl-3-(1H-pyrazol-4-yl)benzyl)oxy)-2,3-dihydro-1H-inden-5-yl)oxy)methyl)nicotinonitrile]", "IC50": "> 500"}, {"smiles": "COc1ccc(-c2cccc(COc3cc(OCc4cncc(C#N)c4)c(CN4CCC4CO)c4c3CCC4)c2C)c(C)c1", "note": "(stereo not drawn) [Example 58, 5-(((4-((2-(hydroxymethyl)azetidin-1-yl)methyl)-7-((4′-methoxy-2,2′-dimethyl-[1,1′-biphenyl]-3-yl)methoxy)-2,3-dihydro-1H-inden-5-yl)oxy)methyl)nicotinonitrile]", "IC50": "> 500"}, {"smiles": "Cc1c(COc2cc(OCc3cncc(C#N)c3)c(CN3CCC3CO)c3c2CCC3)cccc1-c1cncnc1", "note": "(stereo not drawn) [Example 59, 5-(((4-((2-(hydroxymethyl)azetidin-1-yl)methyl)-7-((2-methyl-3-(pyrimidin-5-yl)benzyl)oxy)-2,3-dihydro-1H-inden-5-yl)oxy)methyl)nicotinonitrile]", "IC50": "> 500"}, {"smiles": "Cc1c(COc2cc(OCc3cncc(C#N)c3)c(CN3CCC3CO)c3c2CCC3)cccc1-c1ccccc1C(F)(F)F", "note": "(stereo not drawn) [Example 60, 5-(((4-((2-(hydroxymethyl)azetidin-1-yl)methyl)-7-((2-methyl-2′-(trifluoromethyl)-[1,1′-biphenyl]-3-yl)methoxy)-2,3-dihydro-1H-inden-5-yl)oxy)methyl)nicotinonitrile]", "IC50": "100 to 500"}]}]}
